Measured values taken from patent US6777434B2, “Thiazolidine-4-one derivative, method for preparing the same, and pharmaceutical composition containing the same” (CJ Corp., priority 2002, dated 2004).

Key:
COX-2 = molecular target: T1, COX-2 (Mus musculus, UniProt Q05769); test: Assay for the COX-2 inhibitory activity using RAW 264.7 cell line (PGE2 inhibition); type: cell-based; settings: for COX-2 inhibitory activity compared with the reference: 10 nM, RAW 264.7, comparison with Valdecoxib; for inhibition (%) ratio of COX-2 to COX-1 compared with the reference Valdecoxib: COX-2 at 10 nM (RAW 264.7) versus COX-1 at 1 μM (U-937); for inhibition at 0.01 µM: RAW264.7, 10 nM test compound, RAW 264.7 cells, interferon and LPS, 18 hours, PGE2 by EIA, read-out: Cyclooxygenase (COX) Inhibition (%) COX-2 (10 nM)
T1 construct: host or cells: RAW 264.7 cells, pre-treated with aspirin, then induced with interferon and LPS
T1 sequence (Q05769 18-604): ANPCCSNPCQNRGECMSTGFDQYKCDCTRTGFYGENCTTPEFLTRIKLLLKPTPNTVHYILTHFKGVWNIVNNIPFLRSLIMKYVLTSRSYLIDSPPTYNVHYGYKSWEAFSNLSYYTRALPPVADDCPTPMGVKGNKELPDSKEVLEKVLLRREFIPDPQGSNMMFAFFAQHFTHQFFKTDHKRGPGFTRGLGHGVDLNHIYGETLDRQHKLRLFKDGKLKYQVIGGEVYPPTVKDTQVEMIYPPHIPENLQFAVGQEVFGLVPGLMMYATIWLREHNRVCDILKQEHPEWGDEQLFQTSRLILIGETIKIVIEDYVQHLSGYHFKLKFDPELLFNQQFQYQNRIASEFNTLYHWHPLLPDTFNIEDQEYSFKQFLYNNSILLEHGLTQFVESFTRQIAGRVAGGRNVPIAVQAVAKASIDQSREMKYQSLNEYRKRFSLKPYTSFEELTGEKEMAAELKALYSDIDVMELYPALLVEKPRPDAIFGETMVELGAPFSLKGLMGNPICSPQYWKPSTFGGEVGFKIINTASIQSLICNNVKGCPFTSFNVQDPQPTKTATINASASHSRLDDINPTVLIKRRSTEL
Experimental: Each well was treated with 250 μM of aspirin and incubated at 37° C. for 2 hours. After the culture media were replaced with new culture media, the new culture media were treated with a test compound (10 nM) and incubated for 30 minutes. Then, each well was treated with interferon ? (100 units/ml) and lipopolysaccharide (LPS, 100 ng/ml) and incubated for 18 hours. The culture media were transferred to another test tubes. The concentration of PGE2 was quantified by means of the EIA kit (Cayman Chemicals):
(§1) The percentages of the COX inhibition were calculated according to the following equation:
(§2) % Inhibition=(concentration of PGE2 in test compound-untreated sample−concentration of PGE2 in test compound-treated sample)/(concentration of PGE2 in test compound-untreated sample)×100

COX-1 = molecular target: T2, COX-1 (Homo sapiens, UniProt P23219); test: Assay for the COX-1 inhibitory activity using U-937 (PGE2 inhibition); type: cell-based; settings: 1 μM test compound; U-937 human lymphoma cells; PGE2 after arachidonic acid; read-out: Cyclooxygenase (COX) Inhibition (%) COX-1 (1 μM)
T2 construct: host or cells: U-937 human lymphoma cells
T2 sequence (P23219 24-599): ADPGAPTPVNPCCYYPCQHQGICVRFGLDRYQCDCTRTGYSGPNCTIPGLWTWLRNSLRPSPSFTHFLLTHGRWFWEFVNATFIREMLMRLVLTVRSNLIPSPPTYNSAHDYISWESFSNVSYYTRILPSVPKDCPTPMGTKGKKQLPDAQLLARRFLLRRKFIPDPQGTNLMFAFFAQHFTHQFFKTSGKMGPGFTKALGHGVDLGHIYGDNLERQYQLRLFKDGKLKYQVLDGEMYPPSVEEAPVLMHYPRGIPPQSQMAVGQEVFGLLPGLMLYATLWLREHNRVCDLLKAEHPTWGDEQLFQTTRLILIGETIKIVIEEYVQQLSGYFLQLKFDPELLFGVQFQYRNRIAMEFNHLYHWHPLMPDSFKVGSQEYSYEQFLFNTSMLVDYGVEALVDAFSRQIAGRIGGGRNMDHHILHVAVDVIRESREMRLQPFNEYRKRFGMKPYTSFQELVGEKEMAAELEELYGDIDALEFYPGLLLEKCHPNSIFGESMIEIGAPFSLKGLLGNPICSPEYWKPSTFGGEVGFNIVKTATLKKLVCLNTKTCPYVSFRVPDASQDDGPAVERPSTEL
Experimental: The collected cells were diluted with HBSS (×1, Hank's balanced salt solution) to a concentration of 1×10^6 cells/ml. 1 ml of the dilute cell solution was placed into each well of 12-well plates. 5 μl of 1 μM solution of a test compound in DMSO and 5 μl of DMSO as a control were added to the wells. The wells were incubated in CO2 incubator at 37° C. for 15 minutes. Separately, 10 mM stock solution of arachidonic acid in ethanol was diluted ten times in ethanol to prepare 1 mM solution of arachidonic acid. Arachidonic acid acts as a substrate. 10 μl of the 1 mM solution of arachidonic acid was added to each well and incubated at CO2 incubator at 37° C. for 30 minutes. The cell solution of each well was placed in a centrifuge test tube and centrifuged at 10,000 rpm at 4° C. for 5 minutes. The concentration of PGE2 in the collected cells and the supernatant was quantified by means of a monoclonal kit (Cayman Chemicals). The percentages of PGE2 inhibition in a group of the test compound-treated cells in relation to a group of the DMSO-treated cells were calculated. Based on the calculated values, the COX-1 inhibitory activities were evaluated.
as §1, §2

| SMILES | COX-2 inhibitory activity compared with the reference (COX-2) | inhibition (%) ratio of COX-2 to COX-1 compared with the reference Valdecoxib (COX-2) | inhibition at 0.01 µM (COX-2) [%] | inhibition at 1 µM (COX-1) [%] |
| --- | --- | --- | --- | --- |
| Cc1ccc(N2C(=O)CSC2c2ccc(S(C)(=O)=O)cc2)cc1F (stereo not drawn) [Example 2, 3-(3-fluoro-4-methylphenyl)-2-(4-methanesulfonylphenyl)thiazolidine-4-one] | significantly higher than the reference | significantly higher than that in the reference | 16 | 29.2 |
| CS(=O)(=O)c1ccc(C2SCC(=O)N2c2ccccc2)cc1 (stereo not drawn) [Example 4, 2-(4-methanesulfonylphenyl)-3-phenylthiazolidine-4-one] | significantly higher than the reference | significantly higher than that in the reference | 16 | 26 |
| CS(=O)(=O)c1ccc(C2SCC(=O)N2c2ccc(C#N)cc2)cc1 (stereo not drawn) [Example 5, 3-(4-cyanophenyl)-2-(4-methanesulfonylphenyl)thiazolidine-4-one] |  | significantly higher than that in the reference | 6.54 | 10.1 |
| CS(=O)(=O)c1ccc(C2SCC(=O)N2c2cc(F)cc(F)c2)cc1 (stereo not drawn) [Example 6, 3-(3,5-difluorophenyl)-2-(4-methanesulfonylphenyl)thiazolidine-4-one] | significantly higher than the reference | significantly higher than that in the reference | 12.1 | 38 |
